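Results reflect a 48-hour exposure of cells in 96-well plates to compound at five concentrations. GI50 is the concentration that inhibits growth by half.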 Activity calls are given as the source filed them. Rule as the data show it: active = GI50 up to about 1.1 µM and inactive = higher.
Legend:
Experiment in all cases: growth of human tumour cells (NCI), 48 h
A498 = system: A498
BT-549 = system: BT-549
COLO 205 = system: COLO 205
HCT-116 = system: HCT-116
HCT-15 = system: HCT-15
HOP-92 = system: HOP-92
K562 = system: K562
KM12 = system: KM12
M14 = system: M14
MDA-MB-231 = system: MDA-MB-231
MDA-MB-435 = system: MDA-MB-435
NCI-H460 = system: NCI-H460
NCI/ADR-RES = system: NCI/ADR-RES
OVCAR-5 = system: OVCAR-5
PC-3 = system: PC-3
RXF 393 = system: RXF 393
SK-MEL-2 = system: SK-MEL-2
SNB-19 = system: SNB-19
SW-620 = system: SW-620
DU-145 = system: DU-145

SMILES | GI50 (A498) | GI50 (BT-549) | GI50 (COLO 205) | GI50 (HCT-116) | GI50 (HCT-15) [µM] | GI50 (HOP-92) | GI50 (K562) | GI50 (KM12) | GI50 (M14) | GI50 (MDA-MB-231) | GI50 (MDA-MB-435) | GI50 (NCI-H460) | GI50 (NCI/ADR-RES) | GI50 (OVCAR-5) | GI50 (PC-3) | GI50 (RXF 393) | GI50 (SK-MEL-2) | GI50 (SNB-19) | GI50 (SW-620) | GI50 (DU-145)
CN1C(=O)C(=CNc2ccccc2[N+](=O)[O-])C(=O)N(C)C1=O | > 100 µM (inactive) | > 100 µM (inactive) | > 100 µM (inactive) | > 100 µM (inactive) | > 100 | > 100 µM (inactive) | > 100 µM (inactive) | > 100 µM (inactive) | > 100 µM (inactive) | > 100 µM (inactive) | > 100 µM (inactive) | > 100 µM (inactive) | > 100 µM (inactive) | > 100 µM (inactive) | > 100 µM (inactive) | > 100 µM (inactive) | > 100 µM (inactive) | > 100 µM (inactive) | > 100 µM (inactive) | 
COc1cccc(/N=C/c2cc3cc(Br)ccc3nc2Cl)c1 |  | 47 µM (inactive) | > 50 µM (inactive) | 11.2 µM (inactive) | 35.3 | 30.3 µM (inactive) | 8.09 µM (inactive) | 9.75 µM (inactive) | > 50 µM (inactive) |  | 11.1 µM (inactive) | 13.8 µM (inactive) | 17.2 µM (inactive) | > 50 µM (inactive) | 8.67 µM (inactive) | 13.7 µM (inactive) | 13.7 µM (inactive) | > 50 µM (inactive) | 11.8 µM (inactive) | 48.8 µM (inactive)
Sc1cnnc2ccc(Br)cc12 | 53.3 µM (inactive) | 37.3 µM (inactive) | > 100 µM (inactive) | 86.1 µM (inactive) | 78.3 | 42.7 µM (inactive) | 37.8 µM (inactive) | 50.4 µM (inactive) | 61 µM (inactive) | > 100 µM (inactive) | 27.4 µM (inactive) | 35.6 µM (inactive) | 48.6 µM (inactive) | > 100 µM (inactive) |  | 22.7 µM (inactive) | 26.6 µM (inactive) | 74.3 µM (inactive) | > 100 µM (inactive) | 50.7 µM (inactive)
CCCCN(CC)C(=O)C1=C(C)NC(C)=C(C(=O)N(CC)CCCC)C1 | > 100 µM (inactive) | > 100 µM (inactive) | > 100 µM (inactive) | > 100 µM (inactive) | > 100 | > 100 µM (inactive) |  | > 100 µM (inactive) | > 100 µM (inactive) | > 100 µM (inactive) | 80 µM (inactive) | > 100 µM (inactive) | > 100 µM (inactive) | > 100 µM (inactive) |  | > 100 µM (inactive) | > 100 µM (inactive) | > 100 µM (inactive) | > 100 µM (inactive) | > 100 µM (inactive)
CCOP(=O)(OCC)OC1CC(n2cc(C)c(=O)n(C)c2=O)OC1CO[Si](C)(C)C(C)(C)C (configuration not stated) |  | 55.1 µM (inactive) | > 100 µM (inactive) | 40.8 µM (inactive) | > 100 |  | 48.4 µM (inactive) | 75.2 µM (inactive) | > 100 µM (inactive) |  | > 100 µM (inactive) | 58.3 µM (inactive) | 46.5 µM (inactive) | > 100 µM (inactive) | 29.1 µM (inactive) | 21.6 µM (inactive) | > 100 µM (inactive) | > 100 µM (inactive) | > 100 µM (inactive) | > 100 µM (inactive)
O=C(N/N=C1\C(=O)Nc2c(Cl)cc(Cl)cc21)C(=O)Nc1cccc(C(F)(F)F)c1 | > 100 µM (inactive) | > 100 µM (inactive) | > 100 µM (inactive) | > 100 µM (inactive) | > 100 | > 100 µM (inactive) |  | > 100 µM (inactive) | > 100 µM (inactive) | 94.4 µM (inactive) | 45.5 µM (inactive) | > 100 µM (inactive) | > 100 µM (inactive) | > 100 µM (inactive) | > 100 µM (inactive) | > 100 µM (inactive) | > 100 µM (inactive) | > 100 µM (inactive) | > 100 µM (inactive) | 
CC(=O)Oc1cccc2c1C(=O)C(Br)(Br)CCC2 | 19 µM (inactive) | 2.14 µM (inactive) | 6.52 µM (inactive) | 3.26 µM (inactive) | 5.12 | 2.93 µM (inactive) | 3.3 µM (inactive) | 8.49 µM (inactive) | 2.51 µM (inactive) | 2.38 µM (inactive) | 3.56 µM (inactive) | 17.3 µM (inactive) |  | 7.6 µM (inactive) | 3.96 µM (inactive) | 6.24 µM (inactive) | 9.23 µM (inactive) | 11.1 µM (inactive) | 2.81 µM (inactive) | 13.7 µM (inactive)
Cc1ccc(O)c(C2=NNC(c3cccc(Br)c3)C2)c1 (configuration not stated) |  | > 100 µM (inactive) | > 100 µM (inactive) | 40.4 µM (inactive) | 11.5 | 15.4 µM (inactive) | 38 µM (inactive) | 63.4 µM (inactive) | > 100 µM (inactive) |  | 19.8 µM (inactive) | 33.9 µM (inactive) | 48.1 µM (inactive) | > 100 µM (inactive) | 45.8 µM (inactive) | 56.4 µM (inactive) | > 100 µM (inactive) | 23 µM (inactive) | 67.1 µM (inactive) | 81.3 µM (inactive)
CC1(C)C/N=C/C(C)(OCc2ccccc2)C(=O)NC(C)(C)C/N=C/C(C)(OCc2ccccc2)C(=O)N1 (configuration not stated) | > 10 µM (inactive) | > 10 µM (inactive) |  | > 10 µM (inactive) | > 10 | 0.0569 µM (active) | > 10 µM (inactive) | > 10 µM (inactive) | > 10 µM (inactive) | > 10 µM (inactive) | > 10 µM (inactive) | > 10 µM (inactive) |  | > 10 µM (inactive) | > 10 µM (inactive) | > 10 µM (inactive) | > 10 µM (inactive) | > 10 µM (inactive) | > 10 µM (inactive) | > 10 µM (inactive)
Cc1ccc(N(C)S(=O)(=O)c2ccc([N+](=O)[O-])cc2)cc1 |  | > 100 µM (inactive) | > 100 µM (inactive) | > 100 µM (inactive) | 91.4 |  | 41 µM (inactive) | 74.6 µM (inactive) | 49.8 µM (inactive) | 85.3 µM (inactive) | 81.8 µM (inactive) | 74 µM (inactive) | 97.9 µM (inactive) | > 100 µM (inactive) | 34.4 µM (inactive) | > 100 µM (inactive) | > 100 µM (inactive) | > 100 µM (inactive) | > 100 µM (inactive) | > 100 µM (inactive)
O=C(NCC(C(=O)OCc1ccccc1)C(=O)OCc1ccccc1)OCc1ccccc1 |  | 38.8 µM (inactive) | > 100 µM (inactive) |  | > 100 | > 100 µM (inactive) | 60.1 µM (inactive) | > 100 µM (inactive) | > 100 µM (inactive) |  | > 100 µM (inactive) | 94.6 µM (inactive) | 42.6 µM (inactive) | > 100 µM (inactive) | 35.4 µM (inactive) | 77.4 µM (inactive) | > 100 µM (inactive) | > 100 µM (inactive) | > 100 µM (inactive) | > 100 µM (inactive)
Cc1cc(C)c2c(=O)n(CC(O)CN(Cc3ccccc3)CC(O)Cn3sc4nc(C)cc(C)c4c3=O)sc2n1 (configuration not stated) |  | 23.7 µM (inactive) | 7.73 µM (inactive) | 17.3 µM (inactive) | 17.3 | 17.2 µM (inactive) | 24.2 µM (inactive) | 17.2 µM (inactive) | 17.4 µM (inactive) | 17.7 µM (inactive) | 17 µM (inactive) | 19.7 µM (inactive) | 22.4 µM (inactive) | 20.1 µM (inactive) | 16.8 µM (inactive) | 18.8 µM (inactive) | 17.7 µM (inactive) | 18.5 µM (inactive) | 32 µM (inactive) | 17.9 µM (inactive)
CCN(CC)CCC1(C(=O)OC)SCCc2ccc(C)cc21 (configuration not stated) | > 100 µM (inactive) | > 100 µM (inactive) | > 100 µM (inactive) | > 100 µM (inactive) | > 100 | > 100 µM (inactive) | > 100 µM (inactive) | > 100 µM (inactive) | > 100 µM (inactive) |  | > 100 µM (inactive) | > 100 µM (inactive) | > 100 µM (inactive) | > 100 µM (inactive) | > 100 µM (inactive) | > 100 µM (inactive) | > 100 µM (inactive) | > 100 µM (inactive) | > 100 µM (inactive) | > 100 µM (inactive)
O=C(c1ccc(Br)cc1)n1c2ccc(Br)cc2c2nc3ccccc3nc21 |  | > 100 µM (inactive) | > 100 µM (inactive) | > 100 µM (inactive) | > 100 | > 100 µM (inactive) | > 100 µM (inactive) | > 100 µM (inactive) | > 100 µM (inactive) |  | > 100 µM (inactive) | > 100 µM (inactive) | > 100 µM (inactive) | > 100 µM (inactive) | > 100 µM (inactive) | > 100 µM (inactive) | > 100 µM (inactive) | > 100 µM (inactive) | > 100 µM (inactive) | > 100 µM (inactive)
c1ccc2nc3c(nc2c1)sc1ccccc13 | 27.4 µM (inactive) | 39.2 µM (inactive) | 58.3 µM (inactive) | 26.7 µM (inactive) | 58.9 |  | > 100 µM (inactive) | 47.4 µM (inactive) | > 100 µM (inactive) | 30.5 µM (inactive) | 94.4 µM (inactive) | 13.6 µM (inactive) | 39.7 µM (inactive) | 60.1 µM (inactive) |  |  | 67.5 µM (inactive) | 14.5 µM (inactive) | 56 µM (inactive) | 50 µM (inactive)

From ChEMBL document CHEMBL1201862, “PubChem BioAssay data set” (2004)
